Results on two compounds are retold here after patent publication US20190315775A1, “MODIFIED […] AND PHARMACEUTICAL COMPOSITION HAVING SAME AS ACTIVE INGREDIENT” (KEIO UNIVERSITY, priority 2016, published 2019).

A short description of series [1]: Stability in mouse blood plasma. It is filed as in vitro ADME. The source says:
Subsequently, PEG11(E)-TC11 was examined for stability in mouse blood plasma (A) and in medium (B). […] Such degradation is considered to result from a small amount of esterase in FBS (fetal calf serum) contained in the medium.

The test system of series [2] is KMS11 high-risk MM cell line. Nature of the series: WST-1 cell proliferation inhibition (Example 8), KMS11. It counts as cell-based. The following applies: Homo sapiens, KMS-11, WST-1, 48 hours, read-out: IC50, cell proliferation inhibitory activity, KMS11. As to the method: (§1) Similar to Example 7, high-risk MM cell lines were treated with drugs, TC11 and PEG5(E)-TC11 at arbitrary concentrations. […] Specifically, each high-risk MM cell line was prepared at 5×10^5 cells/ml, and then seeded at 50 μl per well (2.5×10^4 cells). Drugs such as TC11, and PEG5(E)-TC11 were added to wells at arbitrary concentrations. WST-1 reagent was added at 48 hours after addition of drugs. After 1 hour of reaction at 37° C. in a CO2 incubator, absorbance was measured at a wavelength of 450 nm using a microplate reader. Cell viability was found from an absorbance ratio using absorbance at 0 μM designated as 100%. IC50 was calculated from a semi-logarithmic chart using Microsoft (registered trademark) Excel.

For series [3], the system named is KMS21 high-risk MM cell line. Nature of the series: WST-1 cell proliferation inhibition (Example 8), KMS21. It counts as cell-based. Particulars: Homo sapiens, WST-1, 48 hours, read-out: IC50, cell proliferation inhibitory activity, KMS21. As to the method: as §1
In general terms: Formazan colour is commonly taken as a measure of viable cells.

The target of a further series is T1, cereblon (CRBN) (Homo sapiens, UniProt Q96SW2).
T1 construct: recombinant full-length CRBN prepared by the above method was reacted with the beads; T7 tag (N); FLAG tag (C); made in house; host or cells: 293T cells (pcDNA3.3 vector), RIPA extract purified on Ni Sepharose excel
Nature of the series: Pull-down assay of cereblon with biotinylated drug on streptavidin beads. It counts as binding. The following applies: 30° C., 30 minutes, FIG. 9A. As to the method: CRBN was prepared as follows. A T7 tag was added 5′-upstream of, and a FLAG tag and a histidine tag were added 3′-downstream of a full-length CRBN gene. The gene was introduced into a pcDNA3.3 expression vector (Invitrogen), thereby constructing a plasmid DNA. Next, a Kozak sequence was added 5′-upstream of the T7 tag using a KOD-Plus-Mutagenesis Kit (TOYOBO). The plasmid DNA was transfected into 293T cells. After 4 days of culture at 37° C. with 5% CO2, cells were extracted with a RIPA buffer (Thermo), and then the extracted fraction was purified using Ni Sepharose excel (GE Healthcare). Since the purified fraction contained imidazole, TBS (Nacalai Tesque) was subjected to buffer exchange. […] Centrifugation was performed to separate the resultants into a flow-through (F) fraction and a bead (B) fraction. Protein bands corresponding to CRBN were separated by SDS-PAGE, and then detected by Western blot. […] Note that “I” indicates “Input fraction”.

Series [4] is described as follows: Mouse blood kinetics upon single intraperitoneal administration. It is filed as in vivo. The following applies: male, ICR, plasma, ip, mice, single intraperitoneal TC11 60 mg/kg BW. The procedure:
First, PEG11(E)-TC11(A) and PEG11(O)-TC11(B) were examined for stability in mouse blood. To 5-week-old male ICR mice (CLEA Japan, Tokyo, Japan), PEG11(E)-TC11 and PEG11(O)-TC11 were administered intraperitoneally at 59.1 mg/kg BW and 54.6 mg/kg BW, respectively, in such a manner that each molar concentration was equivalent to that of 20 mg/kg BW of TC11. At 0, 0.5, 1, 1.5, 4, 8, 12, and 24 hours later, a tail vein was punctured with a 26G needle for bleeding, and then about 100 μL of blood was collected using a heparinized hematocrit capillary tube (Terumo, Tokyo, Japan). After blood collection, blood was transferred into a 0.5-mL tube, and then subjected to centrifugation at 4° C. and 3,400 G for 15 minutes. Subsequently, the supernatant was collected, and then cryopreserved at −80° C. A quality control serum, Consera (registered trademark) (Nissui pharmaceutical, Tokyo, Japan) was dissolved in 3 mL of distilled water (dH2O) per bottle. After left to stand for 30 minutes, bottles were turned upside-down (mixing by inversion) and then used. Consera (190 μL) was mixed with the collected blood plasma and 10 μL of urine, thereby preparing samples. Moreover, PEG11(E)-TC11 and HOEtO-TC11 were each diluted with dH2O in such a manner that the concentrations were 0, 2, 4, 6, 8, and 10 μM, and then 10 μL of the solution at each concentration and 190 μL of Consera were mixed, thereby preparing a calibration curve sample. […]
HPLC analysis was conducted using Inertsil (registered trademark) ODS-3 […]×Φ4.6 mm as a stationary phase, CH3CN:dH2O=50:50 as a mobile phase, a flow rate of 0.70 mL/min, a UV detection wavelength of 267 nm, and an excitation wavelength of 380 nm, a fluorescence wavelength of 530 nm, and an injection amount of 10 μL at a column temperature of 25° C.
PEG11(E)-TC11 was examined. […] Note that as described in Example 7, since PEG11(E)-TC11 is quickly hydrolyzed by esterase in blood and then converted to HOEtO-TC11, the blood HOEtO-TC11 level was measured.

SMILES strings stand for the structures.

T1 sequence (Q96SW2 whole entry): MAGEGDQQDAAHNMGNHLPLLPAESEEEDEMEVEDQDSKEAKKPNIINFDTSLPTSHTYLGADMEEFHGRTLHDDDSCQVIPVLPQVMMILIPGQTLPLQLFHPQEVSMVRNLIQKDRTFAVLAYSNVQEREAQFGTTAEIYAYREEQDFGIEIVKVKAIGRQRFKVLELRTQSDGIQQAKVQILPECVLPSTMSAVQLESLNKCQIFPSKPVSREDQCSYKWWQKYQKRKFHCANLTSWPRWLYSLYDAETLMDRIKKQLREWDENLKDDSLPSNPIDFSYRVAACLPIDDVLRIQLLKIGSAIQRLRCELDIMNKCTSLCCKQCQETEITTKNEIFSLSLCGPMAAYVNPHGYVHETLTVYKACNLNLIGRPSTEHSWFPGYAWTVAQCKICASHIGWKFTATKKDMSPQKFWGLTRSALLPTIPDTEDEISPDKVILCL

For the compound `COCCOCCOCCOCCOCCOCCOCCOCCOCCOCCOCCOCCC(=O)OCCOc1cc2c(cc1N)C(=O)N(c1c(C(C)C)cccc1C(C)C)C2=O` [PEG11(E)-TC11], the “Stability in mouse blood plasma” value in series [1] is given as “very quickly hydrolyzed by esterase in mouse blood plasma”.

Usually Cmax stands for the peak of the concentration-time curve. By Tmax is commonly meant the time at which the peak concentration occurs. As for `CC(C)c1cccc(C(C)C)c1N1C(=O)c2ccc(N)cc2C1=O` [TC11, 2-(2,6-di-isopropylphenyl)-5-amino-1H-isoindole-1,3-dione, reference compound], the IC50 in series [2] was 3200 nM; in series [3], 1600 nM. Further, the “Binding of CRBN to drug immobilized on beads (pull-down, Western blot)” value on cereblon (CRBN) was “did not bind”. Besides, in series [4] (read-out: Cmax, highest blood level), the peak concentration (Cmax) turned out to be 2600 nM. In addition, the half-life in series [4] (read-out: t1/2, serum half-life (converted)) is 1.4 h. Also, the time of peak concentration (Tmax) in series [4] (read-out: tmax, time at which the blood level reached the highest level) is 1.5 h.
